Laboratory results reported in ChEMBL document CHEMBL1201862, “PubChem BioAssay data set” (2004).
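Step 1: Grow cells in 96-well plates. Step 2: Expose to compound for 48 hours at 5 concentrations. Step 3: Interpolate endpoints linearly; if unreached, use highest concentration. The concentration for 50% growth inhibition is given as GI50.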 Active and inactive are the calls of the source. Rule as the data show it: active = GI50 up to about 1.1 µM and inactive = higher.

Columns and labels:
Assay in all cases: NCI tumour cell line growth inhibition, 48 h
KM12 = tested on: KM12
786-0 = tested on: 786-0
EKVX = tested on: EKVX
HOP-92 = tested on: HOP-92
OVCAR-4 = tested on: OVCAR-4
SF-295 = tested on: SF-295
SK-OV-3 = tested on: SK-OV-3
A549 = tested on: A549
SF-268 = tested on: SF-268
MOLT-4 = tested on: MOLT-4
CCRF-CEM = tested on: CCRF-CEM
A498 = tested on: A498
SK-MEL-28 = tested on: SK-MEL-28
UACC-62 = tested on: UACC-62
MDA-N = tested on: MDA-N
HCC 2998 = tested on: HCC 2998
COLO 205 = tested on: COLO 205
CAKI-1 = tested on: CAKI-1
OVCAR-5 = tested on: OVCAR-5
UACC-257 = tested on: UACC-257

SMILES | GI50 (KM12) | GI50 (786-0) | GI50 (EKVX) | GI50 (HOP-92) | GI50 (OVCAR-4) | GI50 (SF-295) | GI50 (SK-OV-3) | GI50 (A549) | GI50 (SF-268) | GI50 (MOLT-4) | GI50 (CCRF-CEM) | GI50 (A498) | GI50 (SK-MEL-28) | GI50 (UACC-62) | GI50 (MDA-N) | GI50 (HCC 2998) | GI50 (COLO 205) | GI50 (CAKI-1) | GI50 (OVCAR-5) | GI50 (UACC-257)
COc1cc(C2C3=C(COC3=O)Oc3cc4c(cc32)OCO4)ccc1O (stereo not given) | 0.262 µM (active) | 0.481 µM (active) | 1.05 µM (active) | 3.59 µM (inactive) | 0.321 µM (active) | 0.127 µM (active) | 0.302 µM (active) | 0.41 µM (active) | 2.07 µM (inactive) | 0.543 µM (active) | 0.352 µM (active) | 0.668 µM (active) | 0.847 µM (active) | 0.356 µM (active) | 0.11 µM (active) | 0.893 µM (active) | 0.225 µM (active) | 0.0445 µM (active) | 3.78 µM (inactive) | 
O=C1NC(=O)C2=C1CCC2O (stereo not given) | > 100 µM (inactive) | > 100 µM (inactive) | > 100 µM (inactive) | > 100 µM (inactive) | > 100 µM (inactive) | > 100 µM (inactive) | > 100 µM (inactive) | > 100 µM (inactive) | > 100 µM (inactive) | > 100 µM (inactive) | > 100 µM (inactive) | > 100 µM (inactive) | > 100 µM (inactive) | > 100 µM (inactive) | > 100 µM (inactive) | > 100 µM (inactive) | > 100 µM (inactive) | > 100 µM (inactive) | > 100 µM (inactive) | > 100 µM (inactive)
Cc1nc(C(N)=S)sc1C(=O)C/C(=N/N)C(=O)Nc1cccc(Cl)c1C | > 100 µM (inactive) | > 100 µM (inactive) | > 100 µM (inactive) | > 100 µM (inactive) | > 100 µM (inactive) | > 100 µM (inactive) | > 100 µM (inactive) | > 100 µM (inactive) | > 100 µM (inactive) | > 100 µM (inactive) | > 100 µM (inactive) | > 100 µM (inactive) | > 100 µM (inactive) | > 100 µM (inactive) | > 100 µM (inactive) | > 100 µM (inactive) |  | > 100 µM (inactive) | > 100 µM (inactive) | > 100 µM (inactive)
CC(=O)N(CN1C(=O)CCC1C(=O)O)c1ccccc1Cl (stereo not given) | > 100 µM (inactive) | > 100 µM (inactive) | > 100 µM (inactive) | > 100 µM (inactive) | > 100 µM (inactive) | > 100 µM (inactive) | > 100 µM (inactive) | > 100 µM (inactive) | > 100 µM (inactive) | > 100 µM (inactive) | > 100 µM (inactive) | > 100 µM (inactive) | > 100 µM (inactive) | > 100 µM (inactive) | > 100 µM (inactive) | > 100 µM (inactive) | > 100 µM (inactive) | > 100 µM (inactive) | > 100 µM (inactive) | > 100 µM (inactive)
COC(=O)C(=O)C(C(=O)C(=O)Nc1ccc(C)c(C)c1)c1nc2ccc([N+](=O)[O-])cc2nc1O (stereo not given) | > 100 µM (inactive) | > 100 µM (inactive) | 99.5 µM (inactive) | > 100 µM (inactive) | > 100 µM (inactive) | > 100 µM (inactive) | > 100 µM (inactive) | > 100 µM (inactive) | > 100 µM (inactive) | > 100 µM (inactive) | > 100 µM (inactive) | > 100 µM (inactive) | > 100 µM (inactive) | > 100 µM (inactive) | > 100 µM (inactive) | > 100 µM (inactive) |  | > 100 µM (inactive) | > 100 µM (inactive) | > 100 µM (inactive)
CCCCCCCN(CCCCCCC)CC(O)c1cc2ccccc2c2cc(Br)ccc12 (stereo not given) |  | 31.6 µM (inactive) | 25.8 µM (inactive) | 19.2 µM (inactive) | > 100 µM (inactive) | > 10 µM (inactive) | > 100 µM (inactive) |  | 19 µM (inactive) | 35.1 µM (inactive) | 40.9 µM (inactive) | > 100 µM (inactive) | 36.6 µM (inactive) | 20.4 µM (inactive) | 28.5 µM (inactive) | 15.2 µM (inactive) | 24.8 µM (inactive) | 47.6 µM (inactive) | > 100 µM (inactive) | 40.4 µM (inactive)
